Target: T1, farnesyltransferase (Rattus norvegicus, UniProt Q02293+Q04631)
T1 construct: The enzyme can be purified according to Cell, 62: 81-88 (1990), utilizing steps one, two, and three; from tissue; host or cells: rat brain
Assay: Inhibition of farnesyltransferase (3H-farnesyldiphosphate / H-Ras filter assay)
Type: biochemical
Conditions: 37° C., 30 minutes; for inhibition at 0.1 µM: test compound 10^−7M
Source text: The ability of the compounds of the present invention to inhibit farnesyltransferase can be measured according to the method described in J. Biol. Chem., 266: 14603 (1991) or J. Biol. Chem., 270:660-664 (1995). Procedures for determination of the inhibition of farnesylation of the oncogene protein Ras are described in J. Biol. Chem., 266:15575-15578 (1991) and U.S. Pat. No. 5,245,061. Inhibition of rat brain farnesyltransferase can also be measured in vitro using an Amersham Life Science commercial scintillation proximity assay kit and substituting a biotin-K Ras B fragment (0.1 μM final concentration) for the biotin-lamin substrate provided by Amersham. The enzyme can be purified according to Cell, 62: 81-88 (1990), utilizing steps one, two, and three. […] The percent inhibition of the farnesylation caused by the compounds of the present invention (at 10^−6 M) compared to an uninhibited control sample can be evaluated in the same Amersham test system.
The mixture was brought to 37° C., treated with enzyme, incubated for 30 minutes, treated with 1 M HCl/ethanol (1 mL) to stop the reaction, stirred for 15 minutes at room temperature, diluted with ethanol (2 mL), filtered through a 2.5 cm glass microfiber filter (Whatman) with ethanol rinses (4×2 mL). The glass filter was transferred to a scintillation vial and treated with scintillation fluid (5 mL). The radioisotope retained on the glass fiber filter was counted and reflected the activity of the enzyme.

T1 sequence (Q02293 whole entry, one chain of several): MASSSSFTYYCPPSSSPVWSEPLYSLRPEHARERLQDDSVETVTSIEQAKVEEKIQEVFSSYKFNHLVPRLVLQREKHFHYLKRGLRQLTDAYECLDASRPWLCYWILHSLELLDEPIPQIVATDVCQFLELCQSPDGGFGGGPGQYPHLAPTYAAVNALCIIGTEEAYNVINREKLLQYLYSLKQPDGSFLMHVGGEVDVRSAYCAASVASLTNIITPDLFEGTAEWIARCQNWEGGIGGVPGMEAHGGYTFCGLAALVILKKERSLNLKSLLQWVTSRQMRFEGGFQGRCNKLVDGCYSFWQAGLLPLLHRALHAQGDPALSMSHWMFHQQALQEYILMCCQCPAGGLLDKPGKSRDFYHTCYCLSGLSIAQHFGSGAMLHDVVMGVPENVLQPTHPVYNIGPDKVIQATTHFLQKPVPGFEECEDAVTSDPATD

Compound | inhibition at 0.1 µM [%] | inhibition at 0.01 µM (test compound 10^−8M) [%]
Cn1cncc1C(OCc1ccc(Cl)cc1-c1ccccc1)c1ccc(C#N)cc1 (stereo not drawn) [Example 2, 4-(((5-chloro(1,1′-biphenyl)-2-yl)methoxy)(1-methyl-1H-imidazol-5-yl)methyl)benzonitrile] | > 66 | 
Cn1cncc1C(OCc1c(-c2cccc(Cl)c2)cc(C#N)c(=O)n1C)c1ccc(Cl)cc1 (stereo not drawn) [Example 43, 5-(3-chlorophenyl)-6-(((4-chlorophenyl)(1-methyl-1H-imidazol-5-yl)methoxy)methyl)-1-methyl-2-oxo-1,2-dihydro-3-pyridinecarbonitrile] | > 81 | 
COc1cccc(-c2cc(C#N)ccc2OCC(F)(c2ccc(C#N)cc2)c2cncn2C)c1 (stereo not drawn) [Example 58, 6-(2-(4-cyanophenyl)-2-fluoro-2-(1-methyl-1H-imidazol-5-yl)ethoxy)-3′-methoxy-1,1′-biphenyl-3-carbonitrile] |  | 96
